These results are taken from patent publication US20250346600A1, “TRICYCLIC DERIVATIVES AND RELATED USES” (MOMA Therapeutics, Inc., priority 2023, published 2025).

For experiment [1], the target named is T1, Full length WRN protein (aa 2-1432) (Homo sapiens (Human), UniProt Q14191). Kind of experiment: WRN ATPase ADP-Glo biochemical assay, Assay Format A (10 μM ATP). Conditions: 0.25 nM WRN, 100 nM C6.18 ssDNA, 30 min preincubation, read-out: ATPase ADPGlo AC50 (uM)- Assay Format A. The procedure, abridged:
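Sf9-expressed FLAG-AVI-TEV-tagged WRN (0.5 nM) preincubated 30 min with compound (11-point 3-fold dilution). Reaction started with 200 nM C6.18 39-mer ssDNA and 20 μM ATP (addition concentrations), run 30 min at room temperature. ADP measured by ADP-Glo luminescence; IC50 from four-parameter fit, geometric mean of ≥2 runs.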

In experiment [2] the target is T1, Full length WRN protein (aa 2-1432). Kind of experiment: WRN ATPase ADP-Glo biochemical assay, Assay Format B (100 μM ATP). The note with it: 0.25 nM WRN, 100 nM C6.18 ssDNA, 60 min preincubation, read-out: ATPase ADPGlo AC50 (uM)- Assay Format B. For orientation: ADP-Glo first removes unused ATP, then detects ADP through luciferase.
The subject of another experiment is HCT116 cells. Description: HCT116 (MSI) 7 day viability, CellTiter Glo. The note with it: Homo sapiens, HCT-116, 168 h, 7 days, read-out: HCT116 (MSI) Viability 7 Day Abs AC50. It counts as cell-based. The procedure, abridged: (§1)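 Seven-day viability is assessed with CellTiter Glo after compounds, diluted in ten 3-fold steps in DMSO, are exposed to HCT116 (50 cells/well) or HT29 (500 cells/well). Reported IC50 is the geometric mean of at least two independent runs.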

Another experiment has as its system HT29 cells. Description: HT29 (MSS) 7 day viability, CellTiter Glo. It counts as cell-based. Conditions: Homo sapiens, HT-29, 168 h, 7 days, read-out: HT29 (MSS) Viability 7 Day CTGAbs AC50. The gist of the method:
as §1
On the technique in general: Cellular ATP, detected with luciferase, serves as a proxy for viable cell number.

T1 sequence (Q14191 2-1432): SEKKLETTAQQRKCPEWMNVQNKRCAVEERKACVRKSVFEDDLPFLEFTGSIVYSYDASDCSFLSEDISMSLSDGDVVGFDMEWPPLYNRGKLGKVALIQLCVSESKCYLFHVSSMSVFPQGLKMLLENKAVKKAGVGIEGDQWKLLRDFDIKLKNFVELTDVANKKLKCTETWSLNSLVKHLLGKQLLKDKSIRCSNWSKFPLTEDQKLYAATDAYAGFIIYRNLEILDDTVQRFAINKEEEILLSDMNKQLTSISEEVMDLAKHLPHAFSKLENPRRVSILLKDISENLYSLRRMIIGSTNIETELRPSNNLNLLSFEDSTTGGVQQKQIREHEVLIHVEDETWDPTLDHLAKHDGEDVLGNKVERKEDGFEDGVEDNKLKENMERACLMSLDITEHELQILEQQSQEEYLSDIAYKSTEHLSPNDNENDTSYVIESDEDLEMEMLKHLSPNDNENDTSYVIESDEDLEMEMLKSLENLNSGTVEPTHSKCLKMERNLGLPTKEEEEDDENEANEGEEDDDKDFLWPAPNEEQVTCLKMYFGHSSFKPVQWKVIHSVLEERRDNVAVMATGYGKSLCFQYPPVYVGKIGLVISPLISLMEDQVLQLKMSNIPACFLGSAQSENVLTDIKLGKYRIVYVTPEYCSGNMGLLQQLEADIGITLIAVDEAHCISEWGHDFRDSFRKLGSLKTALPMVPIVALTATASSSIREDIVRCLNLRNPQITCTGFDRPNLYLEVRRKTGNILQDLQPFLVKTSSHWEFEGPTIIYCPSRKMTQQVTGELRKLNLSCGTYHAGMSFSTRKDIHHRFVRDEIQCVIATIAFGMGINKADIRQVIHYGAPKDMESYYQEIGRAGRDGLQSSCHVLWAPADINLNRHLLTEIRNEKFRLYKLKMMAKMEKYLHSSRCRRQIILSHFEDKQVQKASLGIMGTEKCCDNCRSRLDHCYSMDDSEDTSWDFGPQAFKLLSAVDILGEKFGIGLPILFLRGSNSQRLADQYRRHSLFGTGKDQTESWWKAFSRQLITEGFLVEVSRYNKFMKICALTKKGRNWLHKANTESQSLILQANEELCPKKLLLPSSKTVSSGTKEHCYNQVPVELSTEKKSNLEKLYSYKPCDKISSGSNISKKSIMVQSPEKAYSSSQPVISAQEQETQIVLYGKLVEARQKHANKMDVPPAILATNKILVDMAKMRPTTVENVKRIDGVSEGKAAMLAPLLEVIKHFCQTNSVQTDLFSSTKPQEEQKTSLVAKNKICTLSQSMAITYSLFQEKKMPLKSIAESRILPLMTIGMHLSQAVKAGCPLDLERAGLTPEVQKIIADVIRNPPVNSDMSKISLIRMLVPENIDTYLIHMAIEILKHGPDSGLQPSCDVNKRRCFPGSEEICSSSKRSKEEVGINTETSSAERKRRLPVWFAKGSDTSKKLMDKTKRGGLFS

Take `C=CC(=O)N1CCc2nn(-c3ccc(C4CCC4)cc3O)c3c2C(C1)N(C(=O)c1ccc(Br)c2[nH]ncc12)CC3` (stereo not shown) [Compound 87, 1-(5-(7-bromo-1H-indazole-4-carbonyl)-2-(4-cyclobutyl-2-hydroxyphenyl)-2,3,4,5,5a,6,8,9-octahydro-7H-1,2,5,7-tetraazabenzo[cd]azulen-7-yl)prop-2-en-1-one]: the half-maximal activity concentration (AC50) in experiment [1] was under 0.0015 µM; in experiment [2], 0.0015 to 0.005 µM; with HCT116 cells it was 1 to 100 nM; in the experiment on HT29 cells, over 3000 nM.

For the compound `C=CC(=O)N1CCc2nn(-c3ccc(C4CCC4)cc3O)c3c2C(C1)N(C(=O)c1cnc(C(F)(F)F)c(SC)c1)CC3` (stereo not shown) [Compound 89, 1-(2-(4-cyclobutyl-2-hydroxyphenyl)-5-(5-(methylthio)-6-(trifluoromethyl)nicotinoyl)-2,3,4,5,5a,6,8,9-octahydro-7H-1,2,5,7-tetraazabenzo[cd]azulen-7-yl)prop-2-en-1-one], the concentration at half-maximal activity (AC50) was under 0.0015 µM in experiment [1], 0.015 to 0.055 µM in experiment [2], 1 to 100 nM with HCT116 cells and over 3000 nM in the experiment with HT29 cells.

Consider `C=CC(=O)N1CCc2nn(-c3ccc(C4CCC4)cc3O)c3c2C(C1)N(C(=O)c1ccc(Br)c2nc(C(F)F)[nH]c12)CC3` (stereo not shown) [Compound 90, 1-(5-(4-bromo-2-(difluoromethyl)-1H-benzo[d]imidazole-7-carbonyl)-2-(4-cyclobutyl-2-hydroxyphenyl)-2,3,4,5,5a,6,8,9-octahydro-7H-1,2,5,7-tetraazabenzo[cd]azulen-7-yl)prop-2-en-1-one], for which the half-maximal activity concentration (AC50) in experiment [1] is under 0.0015 µM; in experiment [2] it was 0.005 to 0.015 µM; in the experiment on HCT116 cells, 1 to 100 nM; in the experiment with HT29 cells, over 3000 nM.

Regarding `C=CC(=O)N1CCc2nn(-c3ccc(C4CCC4)c(O)c3)c3c2C(C1)N(C(=O)c1cnc(C(F)(F)F)c(O)c1)CC3` (stereo not shown) [Compound 91, 1-(2-(4-cyclobutyl-3-hydroxyphenyl)-5-(5-hydroxy-6-(trifluoromethyl)nicotinoyl)-2,3,4,5,5a,6,8,9-octahydro-7H-1,2,5,7-tetraazabenzo[cd]azulen-7-yl)prop-2-en-1-one], the AC50 is under 0.0015 µM in experiment [1], 0.005 to 0.015 µM in experiment [2], 250 to 500 nM in the experiment on HCT116 cells and over 3000 nM with HT29 cells.

For `C=CC(=O)N1CCc2nn(-c3ccc(C45CC(C4)C5)cc3O)c3c2C(C1)N(C(=O)c1cnc(C(F)(F)F)c(O)c1)CC3` (stereo not shown) [Compound 92, 1-(2-(4-(bicyclo[1.1.1]pentan-1-yl)-2-hydroxyphenyl)-5-(5-hydroxy-6-(trifluoromethyl)nicotinoyl)-2,3,4,5,5a,6,8,9-octahydro-7H-1,2,5,7-tetraazabenzo[cd]azulen-7-yl)prop-2-en-1-one], the AC50 in experiment [1] was under 0.0015 µM; in experiment [2], 0.015 to 0.055 µM; in the experiment with HCT116 cells, 1 to 100 nM; in the experiment with HT29 cells it was over 3000 nM.

`C=CC(=O)N1CCc2nn(-c3ccc(C4CCC4)cc3O)c3c2C(C1)N(C(=O)c1ccc(OC(F)(F)F)nc1)CC3` (stereo not shown) [Compound 93, 1-(2-(4-cyclobutyl-2-hydroxyphenyl)-5-(6-(trifluoromethoxy)nicotinoyl)-2,3,4,5,5a,6,8,9-octahydro-7H-1,2,5,7-tetraazabenzo[cd]azulen-7-yl)prop-2-en-1-one]: the AC50 is under 0.0015 µM in experiment [1], 0.005 to 0.015 µM in experiment [2], 1 to 100 nM in the experiment with HCT116 cells and over 3000 nM in the experiment on HT29 cells.

Turning to `C=CC(=O)N1CCc2nn(-c3ccc(C4CCC4)cc3O)c3c2C(C1)N(C(=O)c1ncc(Br)c2[nH]cnc12)CC3` (stereo not shown) [Compound 95, 1-(5-(7-bromo-1H-imidazo[4,5-c]pyridine-4-carbonyl)-2-(4-cyclobutyl-2-hydroxyphenyl)-2,3,4,5,5a,6,8,9-octahydro-7H-1,2,5,7-tetraazabenzo[cd]azulen-7-yl)prop-2-en-1-one], the AC50 is under 0.0015 µM in experiment [1], 0.0015 to 0.005 µM in experiment [2], 1 to 100 nM with HCT116 cells and over 3000 nM in the experiment on HT29 cells.

Turning to `C=CC(=O)N1CCc2nn(-c3ccc(C4CCC4)cc3O)c3c2C(C1)N(C(=O)c1ccc(C(F)(F)F)nc1)CC3` (stereo not shown) [Compound 96, 1-(2-(4-cyclobutyl-2-hydroxyphenyl)-5-(6-(trifluoromethyl)nicotinoyl)-2,3,4,5,5a,6,8,9-octahydro-7H-1,2,5,7-tetraazabenzo[cd]azulen-7-yl)prop-2-en-1-one], the AC50 in experiment [1] is under 0.0015 µM; in experiment [2] it was 0.005 to 0.015 µM; in the experiment with HCT116 cells it was 1 to 100 nM; in the experiment on HT29 cells it was over 3000 nM.

Turning to `C=CC(=O)N1CCc2nn(-c3ccc(C4CCC4)cc3O)c3c2C(C1)N(C(=O)c1ccc(C(F)(F)F)c2[nH]ncc12)CC3` (stereo not shown) [Compound 97, 1-(2-(4-cyclobutyl-2-hydroxyphenyl)-5-(7-(trifluoromethyl)-1H-indazole-4-carbonyl)-2,3,4,5,5a,6,8,9-octahydro-7H-1,2,5,7-tetraazabenzo[cd]azulen-7-yl)prop-2-en-1-one], the AC50 in experiment [1] is under 0.0015 µM; in experiment [2], 0.005 to 0.015 µM; in the experiment on HCT116 cells it was 1 to 100 nM; in the experiment with HT29 cells, over 3000 nM.

Take `C=CC(=O)N1CCc2nn(-c3ccc(C4CC4)c(F)c3O)c3c2C(C1)N(C(=O)c1cnc(C(F)(F)F)c(O)c1)CC3` (stereo not shown) [Compound 100, 1-(2-(4-cyclopropyl-3-fluoro-2-hydroxyphenyl)-5-(5-hydroxy-6-(trifluoromethyl)nicotinoyl)-2,3,4,5,5a,6,8,9-octahydro-7H-1,2,5,7-tetraazabenzo[cd]azulen-7-yl)prop-2-en-1-one]: the AC50 in experiment [1] was 0.0015 to 0.005 µM; in experiment [2], 0.015 to 0.055 µM; in the experiment with HCT116 cells, 100 to 250 nM; with HT29 cells, over 3000 nM.

`C=CC(=O)N1CCc2nn(-c3ccc(C45CC(C4)C5)c(F)c3O)c3c2C(C1)N(C(=O)c1cnc(C(F)(F)F)c(O)c1)CC3` (stereo not shown) [Compound 101, 1-(2-(4-(bicyclo[1.1.1]pentan-1-yl)-3-fluoro-2-hydroxyphenyl)-5-(5-hydroxy-6-(trifluoromethyl)nicotinoyl)-2,3,4,5,5a,6,8,9-octahydro-7H-1,2,5,7-tetraazabenzo[cd]azulen-7-yl)prop-2-en-1-one]: the half-maximal activity concentration (AC50) in experiment [1] was 0.0015 to 0.005 µM; in experiment [2], 0.015 to 0.055 µM; in the experiment with HCT116 cells, 100 to 250 nM; in the experiment on HT29 cells, over 3000 nM.

With `C=CC(=O)N1CCc2nn(-c3ccc(C(C)C)cc3)c3c2C(C1)N(C(=O)c1ccc(Br)c(C(C)(C)O)c1)CC3` (stereo not shown) [Compound 102, 1-(5-(4-bromo-3-(2-hydroxypropan-2-yl)benzoyl)-2-(4-isopropylphenyl)-2,3,4,5,5a,6,8,9-octahydro-7H-1,2,5,7-tetraazabenzo[cd]azulen-7-yl)prop-2-en-1-one], the half-maximal activity concentration (AC50) was 0.005 to 0.015 µM in experiment [1], over 0.055 µM in experiment [2], 500 to 1000 nM in the experiment with HCT116 cells and over 3000 nM in the experiment on HT29 cells.

As to `C=CC(=O)N1CCOc2nn(-c3ccc(C4CC4)cc3C)c3c2C(C1)N(C(=O)c1ccc(Br)c2[nH]cnc12)CC3` (stereo not shown) [Compound 103, 1-(5-(7-bromo-1H-benzo[d]imidazole-4-carbonyl)-2-(4-cyclopropyl-2-methylphenyl)-2,3,4,5,5a,6,8,9-octahydro-7H-10-oxa-1,2,5,7-tetraazacycloocta[cd]inden-7-yl)prop-2-en-1-one], the AC50 in experiment [1] is under 0.0015 µM; in experiment [2], 0.015 to 0.055 µM; in the experiment with HCT116 cells it was 250 to 500 nM; with HT29 cells, over 3000 nM.

The term AC50 denotes the concentration giving half of the maximal activity seen.
